# PubChem BioAssay (NCI)
#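 Cells were grown in 96-well plates and exposed to each compound for 48 hours at five concentrations; endpoints were interpolated linearly between bracketing concentrations, or set to the highest concentration if not reached. At the TGI there is no net growth.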
# What was measured:
# Assay in all cases: NCI tumour cell line growth inhibition, 48 h
# 786-0 renal = test system: 786-0 renal
# A549 NSCLC = test system: A549 NSCLC
# CAKI-1 renal = test system: CAKI-1 renal
# CCRF-CEM leukemia = test system: CCRF-CEM leukemia
# COLO 205 colon = test system: COLO 205 colon
# DLD-1 colon = test system: DLD-1 colon
# EKVX NSCLC = test system: EKVX NSCLC
# HCT-116 colon = test system: HCT-116 colon
# HL-60(TB) leukemia = test system: HL-60(TB) leukemia
# HOP-18 NSCLC = test system: HOP-18 NSCLC
# HOP-62 NSCLC = test system: HOP-62 NSCLC
# HOP-92 NSCLC = test system: HOP-92 NSCLC
# HT29 colon = test system: HT29 colon
# IGROV1 ovarian = test system: IGROV1 ovarian
# K-562 leukemia = test system: K-562 leukemia
# KM12 colon = test system: KM12 colon
# KM20L2 colon = test system: KM20L2 colon
# LXFL 529 NSCLC = test system: LXFL 529 NSCLC
# M14 melanoma = test system: M14 melanoma
# M19-MEL melanoma = test system: M19-MEL melanoma
# MALME-3M melanoma = test system: MALME-3M melanoma
# MOLT-4 leukemia = test system: MOLT-4 leukemia
# NCI-H23 lung = test system: NCI-H23 lung
# NCI-H522 lung = test system: NCI-H522 lung
# OVCAR-3 ovarian = test system: OVCAR-3 ovarian
# OVCAR-4 ovarian = test system: OVCAR-4 ovarian
# OVCAR-5 ovarian = test system: OVCAR-5 ovarian
# OVCAR-8 ovarian = test system: OVCAR-8 ovarian
# RPMI-8226 leukemia = test system: RPMI-8226 leukemia
# RXF 393 renal = test system: RXF 393 renal
# SF-268 CNS = test system: SF-268 CNS
# SF-295 CNS = test system: SF-295 CNS
# SF-539 CNS = test system: SF-539 CNS
# SK-MEL-28 melanoma = test system: SK-MEL-28 melanoma
# SK-MEL-5 melanoma = test system: SK-MEL-5 melanoma
# SK-OV-3 ovarian = test system: SK-OV-3 ovarian
# SN12C renal = test system: SN12C renal
# SNB-19 CNS = test system: SNB-19 CNS
# SR leukemia = test system: SR leukemia
# SW-620 colon = test system: SW-620 colon
# TK-10 renal = test system: TK-10 renal
# U251 CNS = test system: U251 CNS
# UACC-62 melanoma = test system: UACC-62 melanoma
# UO-31 renal = test system: UO-31 renal
# ACHN renal = test system: ACHN renal
# DMS 114 small cell lung = test system: DMS 114 small cell lung
# DMS 273 small cell lung = test system: DMS 273 small cell lung
# HCC-2998 colon = test system: HCC-2998 colon
# HCT-15 colon = test system: HCT-15 colon
# LOX IMVI melanoma = test system: LOX IMVI melanoma
# NCI-H226 lung = test system: NCI-H226 lung
# NCI-H460 lung = test system: NCI-H460 lung
# RXF-631 renal = test system: RXF-631 renal
# SK-MEL-2 melanoma = test system: SK-MEL-2 melanoma
# SNB-75 CNS = test system: SNB-75 CNS
# UACC-257 melanoma = test system: UACC-257 melanoma
# XF 498 CNS = test system: XF 498 CNS
compound,measurement,setting,value
Cc1nn2c(c1C#N)NNc1c-2sc(=N)nnc1=O,TGI,786-0 renal,> 100 µM
same,TGI,A549 NSCLC,> 100 µM
same,TGI,CAKI-1 renal,> 100 µM
same,TGI,CCRF-CEM leukemia,> 100 µM
same,TGI,COLO 205 colon,> 100 µM
same,TGI,DLD-1 colon,> 100 µM
same,TGI,EKVX NSCLC,> 100 µM
same,TGI,HCT-116 colon,> 100 µM
same,TGI,HL-60(TB) leukemia,> 100 µM
same,TGI,HOP-18 NSCLC,> 100 µM
same,TGI,HOP-62 NSCLC,> 100 µM
same,TGI,HOP-92 NSCLC,> 100 µM
same,TGI,HT29 colon,> 100 µM
same,TGI,IGROV1 ovarian,> 100 µM
same,TGI,K-562 leukemia,> 100 µM
same,TGI,KM12 colon,> 100 µM
same,TGI,KM20L2 colon,> 100 µM
same,TGI,LXFL 529 NSCLC,> 100 µM
same,TGI,M14 melanoma,> 100 µM
same,TGI,M19-MEL melanoma,> 100 µM
same,TGI,MALME-3M melanoma,> 100 µM
same,TGI,MOLT-4 leukemia,> 100 µM
same,TGI,NCI-H23 lung,> 100 µM
same,TGI,NCI-H522 lung,> 100 µM
same,TGI,OVCAR-3 ovarian,> 100 µM
same,TGI,OVCAR-4 ovarian,> 100 µM
same,TGI,OVCAR-5 ovarian,> 100 µM
same,TGI,OVCAR-8 ovarian,> 100 µM
same,TGI,RPMI-8226 leukemia,> 100 µM
same,TGI,RXF 393 renal,> 100 µM
same,TGI,SF-268 CNS,> 100 µM
same,TGI,SF-295 CNS,> 100 µM
same,TGI,SF-539 CNS,> 100 µM
same,TGI,SK-MEL-28 melanoma,> 100 µM
same,TGI,SK-MEL-5 melanoma,> 100 µM
same,TGI,SK-OV-3 ovarian,> 100 µM
same,TGI,SN12C renal,> 100 µM
same,TGI,SNB-19 CNS,> 100 µM
same,TGI,SR leukemia,> 100 µM
same,TGI,SW-620 colon,> 100 µM
same,TGI,TK-10 renal,> 100 µM
same,TGI,U251 CNS,> 100 µM
same,TGI,UACC-62 melanoma,> 100 µM
same,TGI,UO-31 renal,> 100 µM
Cc1ccc(S(=O)(=O)C2CC2(Cl)Cl)cc1 (stereo not given),TGI,786-0 renal,43.3 µM
same,TGI,A549 NSCLC,> 100 µM
same,TGI,ACHN renal,70.8 µM
same,TGI,CAKI-1 renal,86.1 µM
same,TGI,CCRF-CEM leukemia,35 µM
same,TGI,COLO 205 colon,41.9 µM
same,TGI,DLD-1 colon,61.1 µM
same,TGI,DMS 114 small cell lung,39.8 µM
same,TGI,DMS 273 small cell lung,> 100 µM
same,TGI,EKVX NSCLC,> 100 µM
same,TGI,HCC-2998 colon,> 100 µM
same,TGI,HCT-116 colon,44.7 µM
same,TGI,HCT-15 colon,55.4 µM
same,TGI,HOP-92 NSCLC,47.8 µM
same,TGI,HT29 colon,37.5 µM
same,TGI,IGROV1 ovarian,72.1 µM
same,TGI,K-562 leukemia,> 100 µM
same,TGI,KM12 colon,> 100 µM
same,TGI,KM20L2 colon,> 100 µM
same,TGI,LOX IMVI melanoma,35.6 µM
same,TGI,LXFL 529 NSCLC,34 µM
same,TGI,M14 melanoma,29.2 µM
same,TGI,M19-MEL melanoma,67.7 µM
same,TGI,MALME-3M melanoma,48.8 µM
same,TGI,MOLT-4 leukemia,42.1 µM
same,TGI,NCI-H226 lung,> 100 µM
same,TGI,NCI-H23 lung,62.5 µM
same,TGI,NCI-H460 lung,> 100 µM
same,TGI,NCI-H522 lung,26.7 µM
same,TGI,OVCAR-3 ovarian,52.6 µM
same,TGI,OVCAR-4 ovarian,13.8 µM
same,TGI,OVCAR-5 ovarian,> 100 µM
same,TGI,OVCAR-8 ovarian,41 µM
same,TGI,RXF 393 renal,29.1 µM
same,TGI,RXF-631 renal,50.8 µM
same,TGI,SF-268 CNS,> 100 µM
same,TGI,SF-295 CNS,> 100 µM
same,TGI,SF-539 CNS,> 100 µM
same,TGI,SK-MEL-2 melanoma,> 100 µM
same,TGI,SK-MEL-28 melanoma,> 100 µM
same,TGI,SK-OV-3 ovarian,> 100 µM
same,TGI,SN12C renal,35.8 µM
same,TGI,SNB-19 CNS,> 100 µM
same,TGI,SNB-75 CNS,> 100 µM
same,TGI,SW-620 colon,44.1 µM
same,TGI,TK-10 renal,> 100 µM
same,TGI,U251 CNS,> 100 µM
same,TGI,UACC-257 melanoma,44 µM
same,TGI,UACC-62 melanoma,60.4 µM
same,TGI,UO-31 renal,> 100 µM
same,TGI,XF 498 CNS,45.2 µM
